Source: patent publication US20110112133A1, “DIHYDRO PYRROLOQUINOLINE DERIVATIVES” (Takeda Pharmaceutical Company Limited, priority 2009, published 2011)

Target: T1, hNK3 receptor (Homo sapiens, UniProt P29371)
T1 construct: expressed in transfected cells; host or cells: CHO cells
T1 sequence (P29371 1-465): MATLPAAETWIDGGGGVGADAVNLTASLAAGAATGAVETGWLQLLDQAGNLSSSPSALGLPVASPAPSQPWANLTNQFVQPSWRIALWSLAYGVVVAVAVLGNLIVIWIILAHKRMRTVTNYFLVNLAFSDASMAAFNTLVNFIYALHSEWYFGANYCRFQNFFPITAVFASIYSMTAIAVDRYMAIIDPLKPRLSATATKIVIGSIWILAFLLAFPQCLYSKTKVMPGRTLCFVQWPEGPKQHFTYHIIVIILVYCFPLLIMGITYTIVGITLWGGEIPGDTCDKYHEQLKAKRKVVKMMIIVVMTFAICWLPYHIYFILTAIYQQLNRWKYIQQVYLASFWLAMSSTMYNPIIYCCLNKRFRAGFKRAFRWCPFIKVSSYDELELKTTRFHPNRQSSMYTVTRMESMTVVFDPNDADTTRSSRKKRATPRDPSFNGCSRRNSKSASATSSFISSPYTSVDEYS
Assay: Radioligand receptor binding inhibitory activity using membrane fraction of hNK3 receptor-expressing CHO cell ([125I]-NKB)
Settings: for inhibition at 10 µM / inhibition at 1 µM: read-out: hNK3 receptor binding inhibitory activity (inhibitory rate (%))
Description: Radioligand Receptor Binding Inhibitory Activity Using Membrane Fraction of hNK3 Receptor-Expressing CHO Cell
hNK3 receptor-expressing CHO cells were cultured in a HAM-F12 medium containing 500 μg/mL Geneticin, 100 U/mL penicillin, 100 μg/mL streptomycin and 10% inactivated serum. The medium was removed before reaching confluence, and the cells were washed with PBS. PBS containing 0.5 mM EDTA was added to detach the cells from the flask and a cell suspension was recovered. The cells were recovered by low speed centrifugation. The cells were suspended in suspending buffer A (50 mM Tris-HCl (pH 7.4), 120 mM NaCl, 5 mM KCl, bacitracin (40 μg/mL), chymostatin (2 μg/mL), PMSF (0.5 mM), 1 mM EDTA), disrupted by a POLYTRON homogenizer (manufactured by KINEMATICA) and centrifuged at 2000×g for 10 min at 4° C. The supernatant was recovered, and ultracentrifuged at 40000×g for 60 min at 4° C. The precipitated fraction was suspended in suspending buffer B (50 mM Tris-HCl (pH 7.4), 3 mM MnCl2, 0.02% BSA, bacitracin (40 μg/mL), chymostatin (2 μg/mL), PMSF (0.5 mM)). The protein concentration of the suspension was measured using Bio-Rad Protein Assay kit and bovine serum albumin (protein preparation), and cryopreserved (at −80° C.) as a membrane fraction preparation of hNK3 receptor-expressing CHO cell until use for a binding assay.
The radioligand receptor binding assay was performed in a 96 well microassay plate format with a final volume of 200 μL. To the 96 well microassay plate were added 50 μL of assay buffer (50 mM Tris-HCl (pH 7.4), 0.02% bovine serum albumin, 2 μg/mL chymostatin, 40 μg/mL bacitracin, 40 μg/mL APMSF, 3 mM MnCl2), the aforementioned cryopreserved membrane fraction preparation suspended in assay buffer (50 μL (300 μg/mL)) and a test compound diluted with 50 μL of assay buffer (containing 2% dimethyl sulfoxide). The reaction was started by the addition of 50 μL of 400 pM [^125I]-NKB NKB (PerkinElmer Life Sciences) solution. For the measurement of the total binding, assay buffer (50 μL) containing 2% dimethyl sulfoxide was added instead of a diluted test compound solution, and for the measurement of non-specific binding, 50 μL of 4 μM unlabeled NKB (manufactured by Peptide Institute, Inc.) solution (diluted with assay buffer containing 2% dimethyl sulfoxide) was added.
After reaction at room temperature for 30 min, using a cell harvester (manufactured by PerkinElmer), the reaction was stopped by rapid filtration on a unifilter plate (GF/C) (manufactured by PerkinElmer), which had been immersed in 0.3% polyethyleneimine for one day, and the membrane fraction was washed 10 times with 50 mM Tris-HCl (pH 7.4) buffer containing 0.02% bovine serum albumin (250 μL). The GF/C filter plate was dried and 20 μL of MicroScinti-O (manufactured by PerkinElmer) was added to each well and the radioactivity was measured by TopCount (manufactured by PerkinElmer).
Specific binding is shown by the value obtained by subtracting non-specific binding from the total binding. The binding inhibitory activity of the test compound is shown by the ratio of the value obtained by subtracting the measured value associated with the addition of the test compound from the total binding, to the value of the specific binding.

Compound | hNK3 receptor binding inhibitory activity (inhibitory rate (%)) (test compound 10^−5 M) [%] | hNK3 receptor binding inhibitory activity (inhibitory rate (%)) (test compound 10^−6 M) [%] | inhibition at 10 µM (test compound 10^−5 M) [%] | inhibition at 1 µM (test compound 10^−6 M) [%]
Cc1ccn(-c2ccc(C(=O)N[C@@H]3CCC(F)(F)C[C@@H]3C(=O)N3CCc4c(-c5ccccc5)nc5ccc(F)cc5c43)cc2)n1 [Example 9, N-{(1R,2S)-4,4-difluoro-2-[(8-fluoro-4-phenyl-2,3-dihydro-1H-pyrrolo[3,2-c]quinolin-1-yl)carbonyl]cyclohexyl}-4-(3-methyl-1H-pyrazol-1-yl)benzamide] | – | – | 53.1 | 27.7
Cc1ccn(-c2ccc(C(=O)N[C@@H]3CCC(F)(F)C[C@@H]3C(=O)N3CCc4c(-c5nccn5COC(=O)C(C)(C)C)nc5ccccc5c43)cc2)n1 [Example 4, [2-(1-{[(1S,2R)-5,5-difluoro-2-({[4-(3-methyl-1H-pyrazol-1-yl)phenyl]carbonyl}amino)cyclohexyl]carbonyl)-2,3-dihydro-1H-pyrrolo[3,2-c]quinolin-4-yl)-1H-imidazol-1-yl]methyl 2,2-dimethylpropanoate] | – | – | -7.9 | -6.1
Cc1ccn(-c2ccc(C(=O)N[C@@H]3CCC(F)(F)C[C@@H]3C(=O)N3CCc4c(-c5ccsc5)nc5ccccc5c43)cc2)n1 [Example 7, N-[(1R,2S)-4,4-difluoro-2-{(4-thiophen-3-yl-2,3-dihydro-1H-pyrrolo[3,2-c]quinolin-1-yl)carbonyl]cyclohexyl}-4-(3-methyl-1H-pyrazol-1-yl)benzamide] | – | – | 35.6 | 5.9
Cc1ccn(-c2ccc(C(=O)N[C@@H]3CCC(F)(F)C[C@@H]3C(=O)N3CCc4c(-c5ncc[nH]5)nc5ccc(F)cc5c43)cc2)n1 [Example 5, N-[(1R,2S)-4,4-difluoro-2-{[8-fluoro-4-(1H-imidazol-2-yl)-2,3-dihydro-1H-pyrrolo[3,2-c]quinolin-1-yl]carbonyl}cyclohexyl]-4-(3-methyl-1H-pyrazol-1-yl)benzamide] | – | – | 15.2 | -8.1

More lines, now with the values ahead:

hNK3 receptor binding inhibitory activity (inhibitory rate (%)) (test compound 10^−5 M) [%] | hNK3 receptor binding inhibitory activity (inhibitory rate (%)) (test compound 10^−6 M) [%] | inhibition at 10 µM (test compound 10^−5 M) [%] | inhibition at 1 µM (test compound 10^−6 M) [%] | Compound
32.7 | 4.1 | – | – | Br.Cc1ccn(-c2ccc(C(=O)N[C@@H]3CCC(F)(F)C[C@@H]3C(=O)N3CCc4c(-c5ncc[nH]5)nc5ccccc5c43)cc2)n1 [Example 2, N-[(1R,2S)-4,4-difluoro-2-{[4-(1H-imidazol-2-yl)-2,3-dihydro-1H-pyrrolo[3,2-c]quinolin-1-yl]carbonyl}cyclohexyl]-4-(3-methyl-1H-pyrazol-1-yl)benzamide hydrobromide]
– | 9.0 | 28.4 | – | Cc1ccn(-c2ccc(C(=O)N[C@@H]3CCC(F)(F)C[C@@H]3C(=O)N3CCc4c(-c5ncc[nH]5)nc5ccccc5c43)cc2)n1 [Example 1, N-[(1R,2S)-4,4-difluoro-2-{[4-(1H-imidazol-2-yl)-2,3-dihydro-1H-pyrrolo[3,2-c]quinolin-1-yl]carbonyl}cyclohexyl]-4-(3-methyl-1H-pyrazol-1-yl)benzamide]
30.4 | 9.4 | – | – | Cc1ccn(-c2ccc(C(=O)N[C@@H]3CCC(F)(F)C[C@@H]3C(=O)N3CCc4c(-c5ncc[nH]5)nc5ccccc5c43)cc2)n1.Cl [Example 3, N-[(1R,2S)-4,4-difluoro-2-{(4-(1H-imidazol-2-yl)-2,3-dihydro-1H-pyrrolo[3,2-c]quinolin-1-yl]carbonyl}cyclohexyl]-4-(3-methyl-1H-pyrazol-1-yl)benzamide hydrochloride]
